Source: patent publication US20060018851A1, “Methods and compositions for preventing and treating hyperpigmentation of skin” (ProCyte Corporation, priority 2004, published 2006)

Tested on: B16 melanocytes
Test: Melanin (pigment) produced by B16 melanocytes in culture; culture media analyzed for pigment content after 5 days, pictures of culture plates
Format: cell-based
Details: for Percent Inhibition of Pigmentation in Melanocytes: 5 days
Procedure: The effect of peptide manganese complexes on pigmentation was determined by determining the amount of melanin produced by B16 melanocytes in culture. Various amounts of a representative peptide manganese complex (glycyl-L-histidyl-L-lysine:manganese) were added to the culture medium. After 5 days, the culture media was collected and analyzed for pigment content. In addition, pictures were taken of the culture plates.

O=c1cc(CO)occ1O [kojic acid, 5-hydoxy-4-pyran-4-one-2-methyl, reference compound]
inhibition of pigment formation compared with GHK-Mn (200 ug/mi kojic acid vs 25 ug/ml GHK-Mn): approximately equivalent

glycyl-L-histidyl-L-lysine:manganese(II) [GHK-Mn]
Percent Inhibition of Pigmentation in Melanocytes (0.1 ug/mL, Plate I): 42% | Percent Inhibition of Pigmentation in Melanocytes (0.1 ug/mL, Plate II): 28% | Percent Inhibition of Pigmentation in Melanocytes (1.0 ug/ml, Plate I): 68% | Percent Inhibition of Pigmentation in Melanocytes (1.0 ug/ml, Plate II): 35% | Percent Inhibition of Pigmentation in Melanocytes (10 ug/ml, Plate I): 88% | Percent Inhibition of Pigmentation in Melanocytes (10 ug/ml, Plate II): 81% | inhibition of pigment formation compared with kojic acid (25 ug/ml GHK-Mn vs 200 ug/mi kojic acid): approximately equivalent to that of 200 ug/mi of kojic acid | formation of pigment inhibited relative to the control (highest concentration tested): more than 80% | formation of melanin pigments in cultured melanocytes (Table 4, FIG. 1) (various concentrations): inhibited the formation of melanin pigments in cultured melanocytes in a dose responsive manner | visual examination of culture flasks: secreted melanin (FIG. 2) (vs PBS control flask): contains relatively little melanin | melanin in the cells, high magnification photograph (FIG. 3B) (vs control melanocyte culture (FIG. 3A)): containing much less melanin in the cells
